Source: ChEMBL document CHEMBL1240352, “Panel of prototypical raltegravir-resistant infectious molecular clones in a novel integrase-deleted cloning vector” (2010)

Key:
Type in all cases: functional
[1] = system: Human immunodeficiency virus 1; assay: Antiviral activity against Human immunodeficiency virus 1 clone 1556 harboring integrase Y143C, L74M, T97A, S230R, K7R, S17N, R20K, L101I, K111Q, T112K, S119R, T206S, D256E, V259I mutation transfected in human C8166 cells assessed as decrease in compound susceptibility relative to wild-type
[2] = system: Human immunodeficiency virus 1; assay: Antiviral activity against Human immunodeficiency virus 1 clone 4736_10 harboring integrase N155H, V151I, G163R and D6E, S17N, R20K, D25E, S39C, L45V, L101I, T124A, K160T, V201I, K211R, D288N mutation transfected in human C8166 cells assessed as decrease in compound susceptibility relative to wild-type
[3] = system: Human immunodeficiency virus 1; assay: Antiviral activity against Human immunodeficiency virus 1 clone 2253 harboring integrase S17N, V31I, I72V, L101I, T124A, K156N,V201I, I220M, D279G, R284G mutation transfected into human C8166 cells assessed as decrease in compound susceptibility relative to wild-type
[4] = system: Human immunodeficiency virus 1; assay: Antiviral activity against Human immunodeficiency virus 1 clone 8070_2 harboring integrase G140S, Q148H, K14R, L63I, L101I, T112A, G193E, D229E, D279G mutation transfected in human C8166 cells assessed as decrease in compound susceptibility relative to wild-type
[5] = system: Human immunodeficiency virus 1; assay: Antiviral activity against Human immunodeficiency virus 1 clone 4736_2 harboring integrase N155H,T97A and D6E, S17N, R20K, D25E, S39C, L45V,L101I, V201I, S119R, T124A, K160T, K211R, D288N mutation transfected into human C8166 cells assessed as decrease in compound susceptibility relative to wild-type
[6] = system: Human immunodeficiency virus 1; assay: Antiviral activity against Human immunodeficiency virus 1 clone 8070_1 harboring integrase G140S, Y143H,Q148H and K14R, L101I, T112A, G193E, D229E, D279G mutation in transfected in human C8166 cells assessed as decrease in compound susceptibility relative to wild-type
[7] = system: Human immunodeficiency virus 1; assay: (§1) Antiviral activity against Human immunodeficiency virus 1 clone 4736_4 harboring integrase N155H, E92Q and D6E, S17N, R20K, D25E, S39C, L45V, L101I, T124A, K160T, V201I, K211R, D288N mutation transfected in human C8166 cells assessed as decrease in compound susceptibility relative to wild-type
[8] = system: Human immunodeficiency virus 1; assay: as §1, with “4736_9” for “4736_4”, “E92Q H51Y” for “E92Q”, “S39C, D41H,” for “S39C,”, “V201I,K211R,” for “V201I, K211R,”
[9] = system: Human immunodeficiency virus 1; assay: Antiviral activity against Human immunodeficiency virus 1 clone 1288 harboring integrase M154L and E11D, V31I, L101I, K160R, F181L,V201I, T206S, D256E mutation transfected into human C8166 cells assessed as decrease in compound susceptibility relative to wild-type
[10] = system: Human immunodeficiency virus 1; assay: Antiviral activity against Human immunodeficiency virus 1 clone 4378 harboring integrase E157Q V31I, V32I, S39C, I72V, L101I, K160Q, F181L, V201I, Q216H, A265V mutation transfected in human C8166 cells assessed as decrease in compound susceptibility relative to wild-type

With `Cc1nnc(C(=O)NC(C)(C)c2nc(C(=O)NCc3ccc(F)cc3)c(O)c(=O)n2C)o1` [RALTEGRAVIR] the “fold change (FC)” value [1] was >200, the “fold change (FC)” value [2] was 48 and the “fold change (FC)” value [3] was 0.4. For the same compound, the “fold change (FC)” value [4] was >200, the “fold change (FC)” value [5] was 116 and the “fold change (FC)” value [6] was >200. For the same compound, the “fold change (FC)” value [7] was 96, the “fold change (FC)” value [8] was 94 and the “fold change (FC)” value [9] was 1.06. For the same compound, the “fold change (FC)” value [10] was 1.15.
